Laboratory results published in patent US20250129430A1, “HIGH ATP-AFFINITY PROTEIN AS THERAPEUTIC TARGET FOR INTRACTABLE CANCER MOLECULAR SUBTYPES AND INHIBITOR THEREOF” (VeraVerse Co., Ltd., priority 2021, published 2025).

Columns and labels:
Test in all cases: Cell viability drug screen, 12-point dose-response AUC
Format in all cases: cell-based, human
[1] = tested on: OCUM1; details: OCUM1 cells; 72 hours
In short: (§1)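 AUC values represent the area under DMSO-normalized 12-point curves, computed by trapezoid rule and averaged over repeated experiments. Each EMT-type gastric line was exposed to half-log serial concentrations for 72 h at 37 °C, and viability was measured with a Glo luminescence kit.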

[2] = tested on: SNU16; details: SNU16 cells; 72 hours
In short: as §1

[3] = tested on: YCC3; details: YCC3 cells; 72 hours
In short: as §1

[4] = tested on: NCI_N87; details: NCI_N87 cells; 72 hours
In short: as §1

[5] = tested on: SNU620; details: SNU620 cells; 72 hours
In short: as §1

[6] = tested on: MKN74; details: MKN74 cells; 72 hours
In short: (§2)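 Viability: luminescence (Glo kit, 15 min RT), normalized to 0.5% DMSO vehicle. Dosing: half-log, 12 concentrations, 72 h. Cells: 5×10^3/well, treated 24 h after plating. Value: trapezoidal AUC, mean of repeats.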

[7] = tested on: SNU216; details: SNU216 cells (non-SEM subtype); 72 hours
In short: as §2

[8] = tested on: SNU668; details: SNU668 cells (SEM subtype); 72 hours
In short: as §1

[9] = tested on: AGS; details: AGS cells (non-SEM subtype); 72 hours
In short: as §2

[10] = tested on: MKN1; details: MKN1 cells; 72 hours
In short: as §1

[11] = tested on: YCC2; details: YCC2 cells; 72 hours
In short: as §1

[12] = tested on: SK4; details: SK4 cells (SEM subtype); 72 hours
In short: as §1

[13] = tested on: SNU638; details: SNU638 cells; 72 hours
In short: as §1

[14] = tested on: SNU1; details: SNU1 cells; 72 hours
In short: as §1

[15] = tested on: SNU719; details: SNU719 cells; 72 hours
In short: as §2

[16] = tested on: KATO3; details: KATO3 cells; 72 hours
In short: as §1

[17] = tested on: MKN45; details: MKN45 cells (non-SEM subtype); 72 hours
In short: as §2

[18] = tested on: SNU1750; details: SNU1750 cells (SEM subtype); 72 hours
In short: as §1

[19] = tested on: SNU1967; details: SNU1967 cells; 72 hours
In short: as §1

[20] = tested on: NCC19; details: NCC19 cells; 72 hours
In short: as §1

[21] = tested on: YCC11; details: YCC11 cells (SEM subtype); 72 hours
In short: as §1

[22] = tested on: SNU484; details: SNU484 cells (SEM subtype); 72 hours
In short: as §1

[23] = tested on: SNU601; details: SNU601 cells; 72 hours
In short: as §1

[24] = tested on: MKN28; details: MKN28 cells; 72 hours
In short: as §1

[25] = tested on: NCC59; details: NCC59 cells; 72 hours
In short: as §1

[26] = tested on: Hs746T; details: Hs746T cells (SEM subtype); 72 hours
In short: as §1

[27] = tested on: NCC20; details: NCC20 cells; 72 hours
In short: as §1

[28] = tested on: NCC24; details: NCC24 cells; 72 hours
In short: as §1

[29] = tested on: FU97; parameters: Average Area Under the Viability Curve (AUC), AUC norm value: scale not given here; details: FU97 cells; 72 hours
In short: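 Trapezoidal AUC of a 12-point, DMSO-normalized dose-response curve. Luminescent viability was measured after 72 h of exposure at 37° C to half-log serial dilutions (0.5% DMSO control), dosed 24 h after plating FU97 cells at 5×10^3 per well.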

Compound	Average Area Under the Viability Curve (AUC), AUC norm value [1]	Average Area Under the Viability Curve (AUC), AUC norm value [2]	Average Area Under the Viability Curve (AUC), AUC norm value [3]	Average Area Under the Viability Curve (AUC), AUC norm value [4]	Average Area Under the Viability Curve (AUC), AUC norm value [5]	Average Area Under the Viability Curve (AUC), AUC norm value [6]	Average Area Under the Viability Curve (AUC), AUC norm value [7]	Average Area Under the Viability Curve (AUC), AUC norm value [8]	Average Area Under the Viability Curve (AUC), AUC norm value [9]	Average Area Under the Viability Curve (AUC), AUC norm value [10]	Average Area Under the Viability Curve (AUC), AUC norm value [11]	Average Area Under the Viability Curve (AUC), AUC norm value [12]	Average Area Under the Viability Curve (AUC), AUC norm value [13]	Average Area Under the Viability Curve (AUC), AUC norm value [14]	Average Area Under the Viability Curve (AUC), AUC norm value [15]	Average Area Under the Viability Curve (AUC), AUC norm value [16]	Average Area Under the Viability Curve (AUC), AUC norm value [17]	Average Area Under the Viability Curve (AUC), AUC norm value [18]	Average Area Under the Viability Curve (AUC), AUC norm value [19]	Average Area Under the Viability Curve (AUC), AUC norm value [20]	also measured
CC(C)C[C@H](NC(=O)CNC(=O)c1cc(Cl)ccc1Cl)B1OC(=O)C(CC(=O)O)(CC(=O)O)O1 [MLN9708]	2.097	−2.259	2.717	1.9321	−0.7036	−0.4008	0.1416	1.232	−0.6988	0.06734	0.3377	0.4078	0.0059	0.02493	1.304	0.559	0.2581	−2.161	−1.556	−0.7913	Average Area Under the Viability Curve (AUC), AUC norm value [21]: −1.824; Average Area Under the Viability Curve (AUC), AUC norm value [22]: −1.069; Average Area Under the Viability Curve (AUC), AUC norm value [23]: 0; Average Area Under the Viability Curve (AUC), AUC norm value [24]: 0.1368; Average Area Under the Viability Curve (AUC), AUC norm value [25]: −0.3472; Average Area Under the Viability Curve (AUC), AUC norm value [26]: −1.547; Average Area Under the Viability Curve (AUC), AUC norm value [27]: −1.527; Average Area Under the Viability Curve (AUC), AUC norm value [28]: −0.9085; Average Area Under the Viability Curve (AUC), AUC norm value [29]: −1.568
CCCCCCCCCCCCCCCC[n+]1ccccc1 [Cetylpyridinium Chloride]	−0.1441	−0.1534	0.3901	1.075	0.09525	−0.4176	−0.1483	−0.02952	−0.1044	0.9994	0.1421	−1.312	−0.3142	0.5171	1.718	1.072	0	−0.3613	−0.5001	1.205	Average Area Under the Viability Curve (AUC), AUC norm value [21]: −1.129; Average Area Under the Viability Curve (AUC), AUC norm value [22]: −0.7401; Average Area Under the Viability Curve (AUC), AUC norm value [23]: 2.328; Average Area Under the Viability Curve (AUC), AUC norm value [24]: 0.4876; Average Area Under the Viability Curve (AUC), AUC norm value [25]: 1.497; Average Area Under the Viability Curve (AUC), AUC norm value [26]: 0.2943; Average Area Under the Viability Curve (AUC), AUC norm value [27]: −0.2318; Average Area Under the Viability Curve (AUC), AUC norm value [28]: 0.06564; Average Area Under the Viability Curve (AUC), AUC norm value [29]: −2.039
CC[C@]1(O)C[C@H]2CN(CCc3c([nH]c4ccccc34)[C@@](C(=O)OC)(c3cc4c(cc3OC)N(C=O)[C@H]3[C@@](O)(C(=O)OC)[C@H](OC(C)=O)[C@]5(CC)C=CCN6CC[C@]43[C@@H]65)C2)C1 [Vincristine]	0.6548	−1.522	4.6576	1.615	−0.3792	0.209	1.755	−1.315	−1.75	−1.53	2.298	−1.283	0.1348	−0.5253	5.036	4.8981	2.226	0	−1.3653	5.039	Average Area Under the Viability Curve (AUC), AUC norm value [21]: −1.42; Average Area Under the Viability Curve (AUC), AUC norm value [22]: −1.965; Average Area Under the Viability Curve (AUC), AUC norm value [23]: 0.9381; Average Area Under the Viability Curve (AUC), AUC norm value [24]: −0.493; Average Area Under the Viability Curve (AUC), AUC norm value [25]: 3.847; Average Area Under the Viability Curve (AUC), AUC norm value [26]: 1.044; Average Area Under the Viability Curve (AUC), AUC norm value [27]: −1.434; Average Area Under the Viability Curve (AUC), AUC norm value [28]: −3.156; Average Area Under the Viability Curve (AUC), AUC norm value [29]: −1.115
CCOc1cc2ncc(C#N)c(Nc3ccc(OCc4ccccn4)c(Cl)c3)c2cc1NC(=O)/C=C/CN(C)C [Neratinib (HKI-272), Neratinib]	1.056	−1.491	0.3013	−5.051	1.117	−1.144	−2.1011	0.8456	−0.9315	−0.4985	−0.1749	−1.282	0	1.038	1.894	1.505	3.029	−0.4123	0.8381	2.052	Average Area Under the Viability Curve (AUC), AUC norm value [21]: −1.333; Average Area Under the Viability Curve (AUC), AUC norm value [22]: −1.2895; Average Area Under the Viability Curve (AUC), AUC norm value [23]: 0.802; Average Area Under the Viability Curve (AUC), AUC norm value [24]: 0.1864; Average Area Under the Viability Curve (AUC), AUC norm value [25]: 1.9785; Average Area Under the Viability Curve (AUC), AUC norm value [26]: −0.2204; Average Area Under the Viability Curve (AUC), AUC norm value [27]: −1.6785; Average Area Under the Viability Curve (AUC), AUC norm value [28]: 1.205; Average Area Under the Viability Curve (AUC), AUC norm value [29]: −0.2016
